In patent publication EP0528699B1, “Saishin N derivatives, process for their preparation and anti-ulcer agents containing them” (TOKYO TANABE COMPANY LIMITED, priority 1991, dated 1993):

Assays:
Assay type in all cases: in vivo, male Wister rats
[1] = tested on: Hydrochloric acid-Ethanol-Induced Ulcers; assay: Hydrochloric acid-Ethanol-Induced Ulcers; conditions: Rattus norvegicus, intraduodenal, read-out: Inhibition ratio(%); for inhibition in vivo at 20 mg/kg: 3 h, Table 1, dose 20 mg/kg intraduodenally three hours before hydrochloric acid - 60% ethanol
Method: (§1) Experiments on Hydrochloric acid-Ethanol-Induced Ulcers, Aspirin-Induced Ulcers, Water-Immersion stress-Induced Ulcers, Shay's Ulcers and Serotonin-Induced Ulcers were carried out using male Wister rats weighing about 200g in groups of six. Experiments on Ischemia-Reperfusion -Induced Gastric Lesions were carried out using male SD rats weighing about 250g in groups of six. Other than for the tests on Ischemia-Reperfusion-Induced Gastric Lesions Models, the test compounds were prepared by mixing thoroughly with polyethyleneglycol and 0.5% sodium carboxymethyl cellulose solution and emulsifying vigorously. Activities against respective ulcer models were evaluated by an inhibiting ratio obtained by dividing the difference between the ulceration indexes of the non-administered group and the test compound group by the non-administered group.
To each rat which had been fasted for 24 hours was orally administered 0.5ml of a mixed solution of 150 mM hydrochloric acid - 60% ethanol per 100g of weight. Each rat was slaughtered after one hour, a length of ulcer formed at the fundus gland area of stomach was measured and ulceration index was calculated based on the length. The test compound was administered intraduodenally one hour or three hours before the administration of mixed solution of hydrochloric acid - 60% ethanol.

Serotonin-Induced Ulcers = assay: Serotonin-Induced Ulcers; conditions: Rattus norvegicus, 4.5 h; dose 20 mg/kg intraduodenally 30 minutes before Serotonin creatinine sulfate 30 mg/kg subcutaneously; read-out: Serotonin, inhibiting ratio
Method: as §1
To each rat which had been fasted for 24 hours, 30 mg/kg of a solution of serotonin creatinine sulfate in a saline solution was administered subcutaneously. Each rat was then slaughtered after 4 and a half hours and area of gastric mucosal lesion formed facing the center line of greater curvature of the corpus ventriculi of stomach was measured and ulceration index was calculated based on the area. The test compound was administered intraduodenally 30 minutes before the administration of the Serotonin creatinine sulfate.
(§2) The results of Aspirin-Induced Ulcers, Water-immersion stress-Induced Ulcers, Shay's Ulcers, Serotonin-induced Ulcers and Ischemia-Reperfusion-Induced Gastric lesions are shown in Table 3.

[2] = tested on: Water-Immersion stress-Induced Ulcers; assay: Water-Immersion stress-Induced Ulcers; conditions: Rattus norvegicus, po, 10 h, read-out: Water-Immersion Stress, inhibiting ratio; for inhibition in vivo at 50 mg/kg: dose 50 mg/kg orally 10 minutes before the exposure to stress; for inhibition in vivo at 20 mg/kg: dose 20 mg/kg orally 10 minutes before the exposure to stress
Method: as §1
Each rat which had been fasted for 15 hours was immobilized in a stress cage and immersed to chest depth in a water bath at 21°C. Each rat was slaughtered after 10 hours, a length of ulcer formed at the fundus gland area of stomach was measured and ulceration index was calculated based on the length. The test compound was administered orally 10 minutes before the exposure to stress.
as §2

Shay's Ulcers = assay: Shay's Ulcers; conditions: Rattus norvegicus, intraduodenal, 14 h; dose 50 mg/kg intraduodenally immediately after the ligation; read-out: Shay, inhibiting ratio
Method: as §1
In each rat which had been fasted for 48 hours, the pyloric end of stomach was ligated, and each was kept without giving any food or water for 14 hours. Each rat was then slaughtered, and area of ulcer formed in the forestomach was measured and ulceration inded was calculated based on the area. The test compound was administered intraduodenally immediately after the ligation.
as §2

Aspirin-Induced Ulcers = assay: Aspirin-Induced Ulcers; conditions: Rattus norvegicus, 9 h; dose 50 mg/kg intraduodenally at pylorus ligation, 5 minutes before 150 mg/kg of aspirin orally; read-out: Aspirin, inhibiting ratio
Method: as §1
In each rat which had been fasted for 24 hours, the pyloric end of the stomach was ligated, and simultaneously the test compound was administered intraduodenally, and after 5 minutes, 150 mg/kg of aspirin was administered orally, respectively. After 9 hours from ligation, each rat was slaughtered, a length of ulcer formed at the fundus gland area of stomach was measured and ulceration index was calculated based on the length.
as §2

SMILES: CC(=O)OC1CC(C)C(=O)CC(C)(C)C1OC(C)=O (stereo not drawn) [AU117, 2,4-cis-4,5-diacetoxy-2,6,6-trimethylcycloheptan-1-one]
- inhibition in vivo at 20 mg/kg [1]: 62%
- inhibition in vivo at 20 mg/kg (Serotonin-Induced Ulcers): 60%

SMILES: COC1C=C(C)C(=O)CC(C)(C)C1O (stereo not drawn) [AU154, 5-hydroxy-4-methoxy-2,6,6-trimethyl-2-cyclohepten-1-one]
- inhibition in vivo at 10 mg/kg ([1]; 1 h, Table 2, dose 10 mg/kg intraduodenally one hour before hydrochloric acid - 60% ethanol): 67%
- inhibition in vivo at 20 mg/kg [1]: 21%
- inhibition in vivo at 50 mg/kg [2]: 17%
- inhibition in vivo at 20 mg/kg (Serotonin-Induced Ulcers): 46%
- inhibition in vivo at 50 mg/kg (Shay's Ulcers): 22%

SMILES: CC1=CC(OC(=O)c2ccc([N+](=O)[O-])cc2Cl)C(O)C(C)(C)CC1=O (stereo not drawn) [AU219, 4-(2-chloro-4-nitrobenzoyloxy)-5-hydroxy-2,6,6-trimethyl-2-cyclohepten-1-one]
- inhibition in vivo at 20 mg/kg [1]: 60%

SMILES: COC1C(OC(=O)c2ccccc2)C=C(C)C(=O)CC1(C)C (stereo not drawn) [AU223, 4-benzoyloxy-5-methoxy-2,6,6-trimethyl-2-cyclohepten-1-one]
- inhibition in vivo at 20 mg/kg [1]: 49%

SMILES: CC(=O)Nc1cccc(C(=O)OC2C(OC(C)=O)C=C(C)C(=O)CC2(C)C)c1 (stereo not drawn) [AU224, 5-(3-acetamidobenzoyloxy)-4-acetoxy-2,6,6-trimethyl-2-cyclohepten-1-one]
- inhibition in vivo at 20 mg/kg [1]: 47%

SMILES: CC1=CC(=O)C(OC(=O)c2ccccc2)C(C)(C)CC1=O (stereo not drawn) [AU225, 5-benzoyloxy-2,6,6-trimethyl-2-cyclohepten-1,4-dione]
- inhibition in vivo at 20 mg/kg [1]: 36%

SMILES: COC1C(O)C=C(C)C(OC(=O)c2ccccc2)CC1(C)C (stereo not drawn) [AU227, 1-benzoyloxy-5-methoxy-2,6,6-trimethyl-2-cyclohepten-4-ol]
- inhibition in vivo at 20 mg/kg [1]: 47%

SMILES: CC1=CC(OC(=O)c2ccc(N(C)C)cc2)C(O)C(C)(C)CC1=O (stereo not drawn) [AU236, 4-(4-dimethylaminobenzoyloxy)-5-hydroxy-2,6,6-trimethyl-2-cyclohepten-1-one]
- inhibition in vivo at 20 mg/kg [1]: 45%

SMILES: CC(=O)Nc1ccc(C(=O)OC2C=C(C)C(=O)CC(C)(C)C2O)cc1 (stereo not drawn) [AU237, 4-(4-acetamidobenzoyloxy)-5-hydroxy-2,6,6-trimethyl-2-cyclohepten-1-one]
- inhibition in vivo at 20 mg/kg [1]: 30%

SMILES: COC1C(OC(=O)c2ccc([N+](=O)[O-])cc2)C=C(C)C(=O)CC1(C)C (stereo not drawn) [AU238, 5-methoxy-4-(4-nitrobenzoyloxy)-2,6,6-trimethyl-2-cyclohepten-1-one]
- inhibition in vivo at 20 mg/kg [1]: 40%

SMILES: COC1C(OC(=O)c2ccc(N)cc2)C=C(C)C(=O)CC1(C)C (stereo not drawn) [AU239, 4-(4-aminobenzoyloxy)-5-methoxy-2,6,6-trimethyl-2-cyclohepten-1-one]
- inhibition in vivo at 20 mg/kg [1]: 41%

SMILES: CC1=CC(O)C(OC(=O)c2ccc(N)cc2N)C(C)(C)CC1=O (stereo not drawn) [AU241, 5-(2,4-diaminobenzoyloxy)-4-hydroxy-2,6,6-trimethyl-2-cyclohepten-1-one]
- inhibition in vivo at 20 mg/kg [1]: 37%

SMILES: CC1=CC(OC(=O)c2ccc(N)cc2N)C(O)C(C)(C)CC1=O (stereo not drawn) [AU242, 4-(2,4-diaminobenzoyloxy)-5-hydroxy-2,6,6-trimethyl-2-cyclohepten-1-one]
- inhibition in vivo at 20 mg/kg [1]: 60%

SMILES: COC1C=C(C)C(=O)CC(C)(C)C1OC(=O)Cc1csc(N)n1 (stereo not drawn) [AU243, 5-(2-aminothiazol-4-yl) acetoxy-4-methoxy-2,6,6-trimethyl-2-cyclohepten-1-one]
- inhibition in vivo at 20 mg/kg [1]: 29%

SMILES: CC1=CC(OC(=O)c2ccc(N)cc2)C2OC1(OCCO)CC2(C)C (stereo not drawn) [AU249, 4-(4-aminobenzoyloxy)-1-(2-hydroxyethoxy)-2,6,6-trimethyl-8-oxabicyclo [3.2.1] oct-2-ene]
- inhibition in vivo at 20 mg/kg [1]: 65%
- inhibition in vivo at 20 mg/kg [2]: 33%

SMILES: CC1CC(O)C2OC1(OC(=O)c1ccc([N+](=O)[O-])cc1)CC2(C)C (stereo not drawn) [AU250, 2,4-cis-1-(4-nitrobenzoyloxy):2,6,6-trimethyl-8-oxabicyclo [3.2.1] octan-4-ol]
- inhibition in vivo at 20 mg/kg [1]: 36%

SMILES: CC1CC(O)C2OC1(OC(=O)c1ccc(N)cc1)CC2(C)C (stereo not drawn) [AU251, 2,4-cis-1-(4-aminobenzoyloxy)-2,6,6-trimethyl-8-oxabicyclo [3.2.1] octan-4-ol]
- inhibition in vivo at 20 mg/kg [1]: 30%

SMILES: CC1CC(O)C2OC1(OC(=O)c1ccccc1)CC2(C)C (stereo not drawn) [AU252, 2,4-cis-1-benzoyloxy-2,6,6-trimethyl-8-oxabicyclo [3.2.1] octan-4-ol]
- inhibition in vivo at 20 mg/kg [1]: 31%

SMILES: CC1=CC(OC(=O)C=Cc2ccc(N)cc2)C(O)C(C)(C)CC1=O (stereo not drawn) [AU401, 4-(4-aminocinnamoyloxy)-5-hydroxy-2,6,6-trimethyl-2-cyclohepten-1-one]
- inhibition in vivo at 20 mg/kg [1]: 49%
- inhibition in vivo at 20 mg/kg (Serotonin-Induced Ulcers): 68%

SMILES: CC1=CC(OC(=O)c2ccco2)C(O)C(C)(C)CC1=O (stereo not drawn) [AU403, 4-(2-furoyloxy)-5-hydroxy-2,6,6-trimethyl-2-cyclohepten-1-one]
- inhibition in vivo at 20 mg/kg [1]: 31%

SMILES: COC1C=C(C)C(=O)CC(C)(C)C1OC(=O)c1ccc([N+](=O)[O-])cc1[N+](=O)[O-] (stereo not drawn) [AU407, 5-(2,4-dinitrobenzoyloxy)-4-methoxy-2,6,6-trimethyl-2-cyclohepten-1-one]
- inhibition in vivo at 20 mg/kg [1]: 82%
- inhibition in vivo at 50 mg/kg (Aspirin-Induced Ulcers): 71%
- inhibition in vivo at 50 mg/kg [2]: 50%
- inhibition in vivo at 20 mg/kg (Serotonin-Induced Ulcers): 41%

SMILES: COC1C=C(C)C(=O)CC(C)(C)C1OC(=O)c1ccc(N)c(N)c1 (stereo not drawn) [AU410, 5-(3,4-diaminobenzoyloxy)-4-methoxy-2,6,6-trimethyl-2-cyclohepten-1-one]
- inhibition in vivo at 20 mg/kg [1]: 75%

SMILES: COc1cc(C=CC(=O)OC2C(O)C=C(C)C(=O)CC2(C)C)ccc1O (stereo not drawn) [AU414, 4-hydroxy-5-(4-hydroxy-3-methoxycinnamoyloxy)-2,6,6-trimethyl-2-cyclohepten-1-one]
- inhibition in vivo at 20 mg/kg [1]: 89%
- inhibition in vivo at 20 mg/kg [2]: 41%

SMILES: COC1C=C(C)C(=O)CC(C)(C)C1OC(=O)c1ccc2nc(N)[nH]c2c1 (stereo not drawn) [AU415, 5-(2-aminobenzimidazolyl-5-carbonyloxy)-4-methoxy-2,6,6-trimethyl-2-cyclohepten-1-one]
- inhibition in vivo at 20 mg/kg [1]: 30%

SMILES: COc1cc(C=CC(=O)OC2C=C(C)C(=O)CC(C)(C)C2O)ccc1O (stereo not drawn) [AU416, 5-hydroxy-4-(4-hydroxy-3-methoxycinnamoyloxy)-2,6,6-trimethyl-2-cyclohepten-1-one]
- inhibition in vivo at 20 mg/kg [1]: 72%

SMILES: COc1cc(C=CC(=O)OC2C=C(C)C3(OC)CC(C)(C)C2O3)ccc1O (stereo not drawn) [AU417, 4-(4-hydroxy-3-methoxycinnamoyloxy)-1-methoxy-2,6,6-trimethyl-8-oxabicyclo [3.2.1] oct-2-ene]
- inhibition in vivo at 20 mg/kg [1]: 69%

SMILES: CC1=CC(O)C(OC(=O)c2nc[nH]c2C)C(C)(C)CC1=O (stereo not drawn) [AU504, 4-hydroxy-5-(5-methyl-4-imidazolylcarbonyloxy)-2,6,6-trimethyl-2-cyclohepten-1-one]
- inhibition in vivo at 20 mg/kg [1]: 39%

SMILES: CC1=CC(OC(=O)C=Cc2ccc(O)cc2)C(O)C(C)(C)CC1=O (stereo not drawn) [AU506, 5-hydroxy-4-(4-hydroxycinnamoyloxy)-2,6,6-trimethyl-2-cyclohepten-1-one]
- inhibition in vivo at 20 mg/kg [1]: 81%

SMILES: COC1C=C(C)C(=O)CC(C)(C)C1OC(=O)c1ccc2nc[nH]c2c1 (stereo not drawn) [AU507, 5-(5-benzimidazolylcarbonyloxy)-4-methoxy-2,6,6-trimethyl-2-cyclohepten-1-one]
- inhibition in vivo at 20 mg/kg [1]: 63%

SMILES: COC12CC(C)(C)C(O1)C(OC(=O)C=Cc1ccc(O)cc1)C=C2C (stereo not drawn) [AU508, 4-(4-hydroxycinnamoyloxy)-1-methoxy-2,6,6-trimethyl-8-oxabicyclo [3.2.1] oct-2-ene]
- inhibition in vivo at 20 mg/kg [1]: 82%

SMILES: COc1ccc(COC2C=C(C)C(=O)CC(C)(C)C2O)cc1 (stereo not drawn) [AUM09, 5-hydroxy-4-(4-methoxybenzyloxy)-2,6,6-trimethyl-2-cyclohepten-1-one]
- inhibition in vivo at 20 mg/kg [1]: 17%
